Test results as given in patent US20240215910A1, “A METHOD FOR […] PRO-OR ANTI […] TEST COMPOUNDS” (GW Research Limited, priority 2020, published 2024).

Key:
[1] = test system: tonic hind limb extensor convulsion from a single electroshock; test: mini-MEST: maximal electroshock seizure threshold test using minimal sample sizes (n=6/group, log-scale current steps); settings: for % change from vehicle / CC50 ± SEM: N=6
Description: (§1) All animals were weighed at the beginning of the study and assigned to treatment groups (n=6/group) based on a mean distribution of body weight across groups.
(§2) The first animal within a treatment group was given a shock at the expected or estimated CC50 current. For subsequent animals, the current was lowered or raised depending on the convulsion outcome from the preceding animal in log scale intervals. Data generated from each treatment group were used to calculate the CC50±SEM values for the treatment group (see Table 5 for details).
as §1
as §2, with “Table 10” for “Table 5”
as §1
as §2, with “Table 15” for “Table 5”

[2] = test system: tonic hind limb extensor convulsion from a single electroshock; mouse model of generalised seizure; test: standard maximal electroshock seizure threshold (MEST) test (n=12/group, 5 mA intervals); settings: Example 4, 30 min post dose; for CC50 +/− SEM: vehicle CC50 24.3
Protocol: The efficacy of Compound 3 was tested in a mouse model of generalised seizure, the maximal electroshock seizure threshold (MEST) test.
All animals were weighed at the beginning of the study and randomly assigned to treatment groups (n=12/group) based on a mean distribution of body weight across groups.
The first animal within a treatment group was given a shock at the expected or
estimated CC50 current. For subsequent animals, the current was lowered or raised depending on the convulsions outcome from the preceding animal in 5 mA intervals.
Data generated from each treatment group were used to calculate the CC50±SEM values for the treatment group.
Test compound effects were also calculated as percentage change in CC50 from the vehicle control group.
Significant difference between drug-treated animals and controls were assessed according to Litchfield and Wilcoxon (1949).

Structure (SMILES): C=C(C)[C@@H]1CCC(C)=C[C@H]1c1c(O)cc(-c2cnn(CC(C)(C)C)c2)cc1O [Compound 1]
- % change from vehicle ([1]; Example 1, 50 mg/kg i.p., 30 min post dose): 388%
- CC50 ± SEM ([1]; Example 1, 50 mg/kg i.p., 30 min post dose, vehicle CC50 24.5): 119.5 mA

Structure (SMILES): C=C(C)[C@@H]1CCC(C)=C[C@H]1c1c(O)cc(-c2cn(C)nn2)cc1O [Compound 2]
- % change from vehicle ([1]; Example 2, 5 mg/kg i.p., 15 min post dose): 26%
- CC50 ± SEM ([1]; Example 2, 5 mg/kg i.p., 15 min post dose, vehicle CC50 22.5): 28.3 +/− 1.1 mA
- % change from vehicle ([1]; Example 2, 50 mg/kg i.p., 30 min post dose): 213%
- CC50 ± SEM ([1]; Example 2, 50 mg/kg i.p., 30 min post dose, vehicle CC50 22.5): 70.5 +/− 5.8 mA

Structure (SMILES): C=C(C)[C@@H]1CCC(C)=C[C@H]1c1c(O)cc(-c2cnn(C)c2)cc1O [Compound 3]
- % change from vehicle ([2]; 2 mg/kg i.p., N=12): 27%
- CC50 +/− SEM ([2]; 2 mg/kg i.p., N=12): 30.8 ± 1.0 mA
- % change from vehicle ([2]; 20 mg/kg i.p., N=12): 116%
- CC50 +/− SEM ([2]; 20 mg/kg i.p., N=12): 52.5 ± 1.3 mA
- % change from vehicle ([2]; 200 mg/kg i.p., N=12): 712%
- CC50 +/− SEM ([2]; 200 mg/kg i.p., N=12): 197.5 ± 20.4 mA
- effect on MEST across doses (in words) ([2]; 2, 20 and 200 mg/kg i.p.): dose-related increase in MEST
- % change from vehicle ([1]; Example 3, 200 mg/kg i.p., 120 min post dose): >636%
- CC50 ± SEM ([1]; Example 3, 200 mg/kg i.p., 120 min post dose, no "+" seen, vehicle CC50 23.5): >173 mA
- seizure threshold as compared to vehicle (in words) ([1]; Example 3, 200 mg/kg i.p., 120 mins before testing): clear increase in seizure threshold

Structure (SMILES): CN1C(=O)CN=C(c2ccccc2)c2cc(Cl)ccc21 [Diazepam, diazepam, reference compound]
- % change from vehicle ([2]; 2.5 mg/kg i.p., N=11): 223%
- % change from vehicle ([1]; Example 1, 2.5 mg/kg i.p., 30 min post dose): 206%
- % change from vehicle ([1]; Example 2, 2.5 mg/kg i.p., 30 min post dose): 296%
- % change from vehicle ([1]; Example 3, 2.5 mg/kg i.p., 30 min post dose): 98%
